Assay results as given in ChEMBL document CHEMBL1201862, “PubChem BioAssay data set” (2004).
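How tested: cells in 96-well plates exposed to compound for 48 hours at five concentrations. GI50: concentration for 50% inhibition of growth.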 The source made the active and inactive calls. Cut-off read from the data, not from the text of the source: active = GI50 up to about 1.1 µM and inactive = higher.

Columns and labels:
Test in all cases: NCI anticancer screen, dose series, 48 h
CAKI-1 = test system: CAKI-1
HCC 2998 = test system: HCC 2998
KM12 = test system: KM12
LOX IMVI = test system: LOX IMVI
MCF7 = test system: MCF7
NCI-H23 = test system: NCI-H23
NCI-H460 = test system: NCI-H460
NCI-H522 = test system: NCI-H522
OVCAR-4 = test system: OVCAR-4
OVCAR-5 = test system: OVCAR-5
PC-3 = test system: PC-3
RXF 393 = test system: RXF 393
SF-268 = test system: SF-268
SK-MEL-28 = test system: SK-MEL-28
SK-MEL-5 = test system: SK-MEL-5
SN12C = test system: SN12C
TK-10 = test system: TK-10
UACC-257 = test system: UACC-257
UO-31 = test system: UO-31

Row | SMILES | GI50 (CAKI-1) | GI50 (HCC 2998) | GI50 (KM12) | GI50 (LOX IMVI) | GI50 (MCF7) | GI50 (NCI-H23) | GI50 (NCI-H460) | GI50 (NCI-H522) | GI50 (OVCAR-4) | GI50 (OVCAR-5) | GI50 (PC-3) | GI50 (RXF 393) | GI50 (SF-268) | GI50 (SK-MEL-28) | GI50 (SK-MEL-5) | GI50 (SN12C) | GI50 (TK-10) | GI50 (UACC-257) | GI50 (UO-31)
1 | COC1=CC(=O)C(C2CC(=O)c3c(O)cc(O)cc3O2)=CC1=O (configuration not stated) | 18 µM (inactive) | 16.8 µM (inactive) | 17.3 µM (inactive) | 16.3 µM (inactive) | 22.9 µM (inactive) | 20.5 µM (inactive) | 23 µM (inactive) | 15.4 µM (inactive) | 17.6 µM (inactive) | 19.6 µM (inactive) | 16.5 µM (inactive) | 19.1 µM (inactive) | 20.7 µM (inactive) | 16.9 µM (inactive) | 16.8 µM (inactive) | 19.8 µM (inactive) | 16.9 µM (inactive) | 18.5 µM (inactive) | 18 µM (inactive)
2 | CC1=CC(O)CC(C)(C)C1/C=C/C(C)=C/C=C/C(C)=C/C=C/C=C(C)/C=C/C=C(C)/C=C/C1=C(C)CC(O)CC1(C)C (configuration not stated) | 23.2 µM (inactive) | 83.9 µM (inactive) | 38.6 µM (inactive) | 56.1 µM (inactive) | 27.7 µM (inactive) | 24.7 µM (inactive) | 32.6 µM (inactive) | 15.2 µM (inactive) | 28.8 µM (inactive) | 34.8 µM (inactive) | 23.2 µM (inactive) | 18.5 µM (inactive) |  | 17.5 µM (inactive) | 16.6 µM (inactive) |  | 57.8 µM (inactive) | 24.9 µM (inactive) | 34 µM (inactive)
3 | Nc1ccc(Oc2ccc(C3(c4ccc(Oc5ccc(N)c(O)c5)cc4)C4CC5CC(C4)CC3C5)cc2)cc1O | 2.47 µM (inactive) | 1.65 µM (inactive) | 1.91 µM (inactive) | 1.81 µM (inactive) | 1.67 µM (inactive) | 1.91 µM (inactive) | 1.73 µM (inactive) | 1.73 µM (inactive) | 2.43 µM (inactive) | 2.35 µM (inactive) | 1.68 µM (inactive) | 1.73 µM (inactive) | 1.53 µM (inactive) | 1.84 µM (inactive) | 1.58 µM (inactive) | 1.9 µM (inactive) | 2.12 µM (inactive) | 2.12 µM (inactive) | 1.92 µM (inactive)
4 | CC[C@@H]1CC[C@@H]2[C@H](CC[C@]3(C)[C@@H](OS(=O)(=O)c4ccc(C)cc4)CC[C@@H]23)[C@H]1CO | > 100 µM (inactive) | > 100 µM (inactive) | > 100 µM (inactive) | 23.8 µM (inactive) | 43.3 µM (inactive) | > 100 µM (inactive) | > 100 µM (inactive) | > 100 µM (inactive) | > 100 µM (inactive) | > 100 µM (inactive) | 82 µM (inactive) | > 100 µM (inactive) | > 100 µM (inactive) | > 100 µM (inactive) | 42.6 µM (inactive) | 78.5 µM (inactive) | > 100 µM (inactive) | 80.2 µM (inactive) | 21.3 µM (inactive)
5 | OC[C@@H](O)[C@H](O)[C@@H](O)/C=N/Nc1ccc(Cl)nn1 | > 100 µM (inactive) | > 100 µM (inactive) | > 100 µM (inactive) | > 100 µM (inactive) | > 100 µM (inactive) | > 100 µM (inactive) | > 100 µM (inactive) | > 100 µM (inactive) | > 100 µM (inactive) | > 100 µM (inactive) | > 100 µM (inactive) | > 100 µM (inactive) | > 100 µM (inactive) | > 100 µM (inactive) | > 100 µM (inactive) | > 100 µM (inactive) | > 100 µM (inactive) | > 100 µM (inactive) | 
6 | O=[N+]([O-])C1=Cc2c(O)ccc(O)c2C2OC=CC12 (configuration not stated) | 13.1 µM (inactive) | 27.4 µM (inactive) | 16.4 µM (inactive) | 15.7 µM (inactive) | 13.6 µM (inactive) | 15.5 µM (inactive) | 19.7 µM (inactive) | 3.83 µM (inactive) | 16.4 µM (inactive) | 23.5 µM (inactive) | 14.7 µM (inactive) | 15.2 µM (inactive) | 19.8 µM (inactive) | 44.8 µM (inactive) | 12.4 µM (inactive) | 18.2 µM (inactive) | 16.6 µM (inactive) | 15 µM (inactive) | 14.6 µM (inactive)
7 | O=CC1OC(=O)c2cc(O)c(O)c(O)c2-c2c(cc(O)c(O)c2O)C(=O)OC1C1OC(=O)c2cc(O)c(O)c(O)c2-c2c(O)c(O)c3oc(=O)c4c(c(O)c(O)c5oc(=O)c2c3c54)-c2c(cc(O)c(O)c2O)C(=O)OCC1O (configuration not stated) | 12.1 µM (inactive) | 33.4 µM (inactive) | 20.3 µM (inactive) | 11.2 µM (inactive) | 19.6 µM (inactive) | 30.8 µM (inactive) | 20.7 µM (inactive) | 18.2 µM (inactive) | 14.2 µM (inactive) | 29.6 µM (inactive) | 38.2 µM (inactive) | 57 µM (inactive) | 56.9 µM (inactive) | > 100 µM (inactive) | 18.2 µM (inactive) | 16.6 µM (inactive) |  | 46.2 µM (inactive) | 23.4 µM (inactive)
8 | COC(=O)C1(Cc2ccc3c(c2)CCC3)Cc2ccc3c(c2C1)CCC3 (configuration not stated) | 21.6 µM (inactive) | 34.5 µM (inactive) | 17.7 µM (inactive) | 16.8 µM (inactive) | 13.2 µM (inactive) | 1.48 µM (inactive) | 24.8 µM (inactive) | 18.4 µM (inactive) | 17.2 µM (inactive) |  | 16.9 µM (inactive) | 24 µM (inactive) | 44.4 µM (inactive) | 23.9 µM (inactive) | 16.6 µM (inactive) | 17.5 µM (inactive) | 49.7 µM (inactive) | 5.61 µM (inactive) | 18.7 µM (inactive)
9 | C=C(C)C1Cc2c(cc(OC)c3c(=O)c4cccc(O)c4oc23)O1 (configuration not stated) | 16.6 µM (inactive) | 34.1 µM (inactive) | 46.5 µM (inactive) | 5.7 µM (inactive) | 0.024 µM (active) | 26 µM (inactive) | 28.6 µM (inactive) | 16.6 µM (inactive) | 18.7 µM (inactive) | 72.9 µM (inactive) | 38.2 µM (inactive) | 19.4 µM (inactive) | 20.4 µM (inactive) | 25.5 µM (inactive) | 16.5 µM (inactive) | 28.6 µM (inactive) | 19.9 µM (inactive) | 33 µM (inactive) | 18 µM (inactive)
10 | CCC(CN(C)C)C(=O)c1ccco1 (configuration not stated) | > 100 µM (inactive) | > 100 µM (inactive) | > 100 µM (inactive) | > 100 µM (inactive) | 47.9 µM (inactive) | > 100 µM (inactive) | > 100 µM (inactive) | 14.5 µM (inactive) | > 100 µM (inactive) | > 100 µM (inactive) | > 100 µM (inactive) | > 100 µM (inactive) | 54.8 µM (inactive) | > 100 µM (inactive) |  | > 100 µM (inactive) | > 100 µM (inactive) | > 100 µM (inactive) | > 100 µM (inactive)
11 | O=C(Nc1ccc(Cl)cc1)NS(=O)(=O)c1coc2cc(F)ccc2c1=O | > 100 µM (inactive) | 80.4 µM (inactive) | 92 µM (inactive) | > 100 µM (inactive) | > 100 µM (inactive) | > 100 µM (inactive) | > 100 µM (inactive) | 67.9 µM (inactive) | > 100 µM (inactive) | > 100 µM (inactive) | > 100 µM (inactive) | > 100 µM (inactive) | > 100 µM (inactive) | > 100 µM (inactive) | > 100 µM (inactive) | > 100 µM (inactive) | > 100 µM (inactive) | > 100 µM (inactive) | 86.3 µM (inactive)
12 | CC(=O)ONC(C(=O)C(C)(C)C)C(=O)C(C)(C)C | > 100 µM (inactive) | > 100 µM (inactive) | > 100 µM (inactive) | > 100 µM (inactive) | > 100 µM (inactive) | > 100 µM (inactive) | > 100 µM (inactive) | > 100 µM (inactive) | > 100 µM (inactive) | > 100 µM (inactive) | > 100 µM (inactive) | > 100 µM (inactive) | > 100 µM (inactive) | > 100 µM (inactive) | > 100 µM (inactive) | > 100 µM (inactive) | > 100 µM (inactive) | > 100 µM (inactive) | > 100 µM (inactive)
13 | CCOc1ccccc1NC(=O)C(=O)C(/C(=N/N)C(=O)OC)c1nc2ccc([N+](=O)[O-])cc2nc1O (configuration not stated) | > 100 µM (inactive) | > 100 µM (inactive) | > 100 µM (inactive) | > 100 µM (inactive) | > 100 µM (inactive) |  | > 100 µM (inactive) | 58.3 µM (inactive) | > 100 µM (inactive) | > 100 µM (inactive) | > 100 µM (inactive) | > 100 µM (inactive) | > 100 µM (inactive) | > 100 µM (inactive) | > 100 µM (inactive) | > 100 µM (inactive) | > 100 µM (inactive) | > 100 µM (inactive) | 
14 | O=C1O[C@H]2[C@H](O)[C@@H](OC(=O)c3cc(O)c(O)c4c3[C@@H]3C1=CC(=O)C(O)(O)C3(O)O4)[C@H](OC(=O)c1cc(O)c(O)c(O)c1)O[C@@H]2CO (some centres not stated) [FUROSIN] | > 100 µM (inactive) | > 100 µM (inactive) | 26.7 µM (inactive) | 48 µM (inactive) | > 100 µM (inactive) | > 100 µM (inactive) | 64.1 µM (inactive) | 45.4 µM (inactive) | > 100 µM (inactive) | > 100 µM (inactive) | > 100 µM (inactive) | > 100 µM (inactive) | 76.4 µM (inactive) | > 100 µM (inactive) | 42.5 µM (inactive) | > 100 µM (inactive) |  | > 100 µM (inactive) | 57.1 µM (inactive)
